According to PMC7558026, “Exploring and applying the substrate promiscuity of a C-glycosyltransferase in the chemo-enzymatic synthesis of bioactive C-glycosides” (Nature Communications, 2020):
Values joined by “and” are separate entries in the source; they are usually repeats but may differ in a detail not shown here. Equal values may be shown once.

Key:
[1] = test system: E. coli-AbCGT; test: Glycosylation by whole-cell biocatalyst E. coli-AbCGT; assay type: cell-based; conditions: fig. 2c, 30 °C, M9 medium, 12 h, 0.25 mM acceptor; Reaction-1 to -3
Procedure: The induced cells of E. coli-AbCGT were harvested by centrifugation at 3000 × g for 5 min at 4 °C and washed with ddH2O. Pellets were resuspended by M9 minimal medium containing 2% glucose to appropriate cell density (OD600 = 3.0). Prepared whole-cell biocatalyst of E. coli-AbCGT (500 μL) was then added to 2-mL tubes containing various acceptors at a concentration of 0.25 mM. The mixture was incubated at 30 °C for 12 h with shaking (200 rpm). The reactions were analyzed using GT activity assays as described above. For quantification, three parallel assays were routinely carried out.

[2] = target: AbCGT (Aloe vera, UniProt A0A7G9P699); test: Glycosyltransferase activity assay, purified AbCGT (wild type) with aglycon acceptors and UDP-Glc; assay type: biochemical, Aloe barbadensis; conditions: fig. 2b, purified AbCGT, redesigned substrates; Reaction-1 to -3
Sequence of AbCGT (A0A7G9P699 entry or part of it): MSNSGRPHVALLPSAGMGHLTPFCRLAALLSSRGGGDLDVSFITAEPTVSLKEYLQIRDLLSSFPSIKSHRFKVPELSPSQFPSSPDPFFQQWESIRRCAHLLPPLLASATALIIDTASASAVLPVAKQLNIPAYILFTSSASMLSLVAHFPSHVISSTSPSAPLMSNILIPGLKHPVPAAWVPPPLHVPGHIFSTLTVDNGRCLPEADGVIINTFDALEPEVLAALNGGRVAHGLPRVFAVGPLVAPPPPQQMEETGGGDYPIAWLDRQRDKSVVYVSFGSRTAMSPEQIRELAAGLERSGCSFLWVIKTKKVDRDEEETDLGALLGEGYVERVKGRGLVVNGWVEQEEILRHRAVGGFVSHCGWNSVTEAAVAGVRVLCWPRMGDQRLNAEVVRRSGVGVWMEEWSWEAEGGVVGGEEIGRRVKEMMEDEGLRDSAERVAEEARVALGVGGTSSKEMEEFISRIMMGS

[3] = target: T1, SGLT2 (Homo sapiens, UniProt P31639); test: 1-NBDG uptake in HEK293 cells stably expressing SGLT2; assay type: cell-based; conditions: triplicate; for inhibition at 10 µM: HEK293, compound at 10 μM, read-out: SGLT2 inhibitory rates; for SGLT2 inhibitory rates: compound at 10 μM, 10 µM
T1 construct: Human full-length SGLT2 cDNA (NM_003041.3) was synthesized; expressed in transfected cells; host or cells: HEK293, retroviral transduction with pMSCVpuro-SGLT2, puromycin selected
T1 sequence (P31639 1-672): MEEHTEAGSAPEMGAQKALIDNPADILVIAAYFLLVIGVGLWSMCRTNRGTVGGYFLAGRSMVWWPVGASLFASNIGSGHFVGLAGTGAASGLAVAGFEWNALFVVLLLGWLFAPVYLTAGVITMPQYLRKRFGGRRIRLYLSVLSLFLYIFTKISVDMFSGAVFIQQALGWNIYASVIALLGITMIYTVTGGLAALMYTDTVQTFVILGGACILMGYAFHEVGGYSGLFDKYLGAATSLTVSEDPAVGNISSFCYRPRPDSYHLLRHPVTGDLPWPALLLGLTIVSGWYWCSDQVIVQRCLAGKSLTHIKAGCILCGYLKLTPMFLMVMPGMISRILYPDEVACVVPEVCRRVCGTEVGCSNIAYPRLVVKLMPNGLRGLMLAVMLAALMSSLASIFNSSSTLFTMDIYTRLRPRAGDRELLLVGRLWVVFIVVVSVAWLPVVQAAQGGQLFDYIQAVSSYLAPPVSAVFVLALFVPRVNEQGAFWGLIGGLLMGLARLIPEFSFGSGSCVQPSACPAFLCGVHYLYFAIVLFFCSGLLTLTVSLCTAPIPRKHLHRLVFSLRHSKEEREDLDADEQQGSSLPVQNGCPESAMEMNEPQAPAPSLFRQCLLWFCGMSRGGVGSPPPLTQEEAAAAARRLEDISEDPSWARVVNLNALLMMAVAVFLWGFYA

[4] = target: T2, SGLT1 (Homo sapiens, UniProt P13866); test: 1-NBDG uptake in HEK293 cells stably expressing SGLT1; assay type: cell-based; conditions: HEK293, compound at 10 μM; triplicate; read-out: SGLT1 inhibitory rates
T2 construct: The full-length SGLT1 cDNA was obtained by PCR with forward primer; expressed in transfected cells
T2 sequence (P13866 1-664): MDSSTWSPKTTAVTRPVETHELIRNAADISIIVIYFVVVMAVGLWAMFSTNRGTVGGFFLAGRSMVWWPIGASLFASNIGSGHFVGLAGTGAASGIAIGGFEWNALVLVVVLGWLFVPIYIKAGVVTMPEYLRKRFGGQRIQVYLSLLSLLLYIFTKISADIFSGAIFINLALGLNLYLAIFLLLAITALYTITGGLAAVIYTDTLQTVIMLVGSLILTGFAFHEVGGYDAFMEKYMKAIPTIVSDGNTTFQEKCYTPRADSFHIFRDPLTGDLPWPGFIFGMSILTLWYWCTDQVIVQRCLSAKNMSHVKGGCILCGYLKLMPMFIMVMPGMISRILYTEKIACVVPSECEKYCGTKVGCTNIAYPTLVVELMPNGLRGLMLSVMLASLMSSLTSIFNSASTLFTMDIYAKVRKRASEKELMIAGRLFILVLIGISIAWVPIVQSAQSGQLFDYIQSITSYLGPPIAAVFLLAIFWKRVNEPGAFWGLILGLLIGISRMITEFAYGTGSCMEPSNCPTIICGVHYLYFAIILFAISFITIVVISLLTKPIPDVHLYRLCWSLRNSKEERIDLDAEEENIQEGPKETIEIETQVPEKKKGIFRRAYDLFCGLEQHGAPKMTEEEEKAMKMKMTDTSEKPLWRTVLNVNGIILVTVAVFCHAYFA

[5] = test system: E. coli-AbCGT; test: Optimization of cell density and substrate concentration in whole-cell biocatalysis; assay type: cell-based; conditions: replicates 1-3; for Conversion rate of 46: substrate 150 mg L^‒1; for conversion rate: OD600 = 13.0
Procedure: To study the optimal cell density, the reaction was performed in various cell densities with OD600 values in the range of 1.0−15.0 and a substrate concentration of 150 mg L^‒1. […] For quantification, three parallel assays were routinely carried out.

Structure (SMILES)	conversion rates, Whole cells [1]	conversion rates, Purified Enzyme [2]	inhibition at 10 µM [3]	also measured
Oc1ccc(CCc2c(O)cc(O)cc2O)cc1 [Compound 51]	87.9% and 92.2% and 95.8%	100%	3.3%	–
Oc1cc(O)c(CCc2ccccc2)c(O)c1 [Compound 39, 1-phenethylbenzene-2,4,6-triol]	7.2% and 13.4% and 9.4%	100%	0.2%	–
Oc1cc(O)c(Cc2ccc(-c3ccccc3)cc2)c(O)c1 [Compound 50]	0%	100%	0.2%	–
OCC1OC(c2c(O)cc(O)c(Cc3ccc(-c4ccccc4)cc3)c2O)C(O)C(O)C1O (stereo not shown) [Compound 50a]	–	–	> 96%	inhibition at 10 µM [4]: 27.1%; SGLT2 inhibitory rates [3]: 96.3%
Oc1cc(O)c(Cc2ccsc2)c(O)c1 [Compound 42]	73% and 84.5% and 79.6%	100%	2.7%	–
Oc1ccc(Cc2ccccc2)c(O)c1 [Compound 28]	0.5% and 0.7% and 0.3%	55.6% and 72.2% and 58.2%	–	–
CCCCc1ccc(Cc2c(O)cc(O)c(C3OC(CO)C(O)C(O)C3O)c2O)cc1 (stereo not shown) [Compound 47a]	–	–	> 96%	inhibition at 10 µM [4]: 17.1%; SGLT2 inhibitory rates [3]: 100%
Oc1cc(O)c(Cc2ccccc2)c(O)c1 [Compound 38, 1-benzylbenzene-2,4,6-triol]	44.3% and 46.1% and 53.7%	100%	4.2%	–
Oc1cc(O)c(CCc2ccc3c(c2)CCO3)c(O)c1 [Compound 52]	84.1% and 72.7% and 80.3%	100%	0.8%	–
Oc1cc(O)c(Cc2ccc(F)cc2)c(O)c1 [Compound 48]	86% and 92.2% and 88.8%	100%	0.2%	–
Oc1cc(O)c(CCc2ccc(F)cc2)c(O)c1 [Compound 53]	66.8% and 61% and 58.3%	100%	0.2%	–
Oc1cc(O)c(CC2CCC2)c(O)c1 [Compound 35]	41.1% and 39.5% and 30.5%	100%	–	–
Oc1cc(O)c(CCc2ccc(Cl)cc2)c(O)c1 [Compound 54]	39.8% and 44.7% and 47.4%	100%	0.2%	–
Oc1ccc(/N=N/c2nccs2)c(O)c1 [Compound 29]	3.7% and 5.4% and 5.9%	35.9% and 40% and 39.9%	–	–
OCC1OC(c2c(O)cc(O)c(Cc3ccc(Cl)cc3)c2O)C(O)C(O)C1O (stereo not shown) [Compound 49a]	–	–	> 96%	inhibition at 10 µM [4]: 34.7%; SGLT2 inhibitory rates [3]: 98.5%
Oc1cc(O)c(CC2CCCCC2)c(O)c1 [Compound 37]	100%	100%	–	–
Oc1cc(O)c(CCc2c[nH]c3ccccc23)c(O)c1 [Compound 43]	87.2% and 96% and 92.6%	100%	12.9%	–
CCc1ccc(O)cc1O [Compound 27]	0%	5.7% and 8.5% and 6.8%	–	–
Oc1cc(O)c(CCCCc2ccccc2)c(O)c1 [Compound 40]	100%	100%	–	–
CCCCc1ccc(Cc2c(O)cc(O)cc2O)cc1 [Compound 47]	2.7% and 3.2% and 3.1%	100%	0.2%	–
Cc1ccc(Cc2c(O)cc(O)cc2O)cc1 [Compound 46]	89% and 80.2% and 82.3%	100%	10.8%	Conversion rate of 46 ([5]; OD600nm 1.0): 2% and 4% (2×); Conversion rate of 46 ([5]; OD600nm 3.0): 13% and 11% and 15%; Conversion rate of 46 ([5]; OD600nm 5.0): 22% (2×) and 19%; Conversion rate of 46 ([5]; OD600nm 7.0): 26% and 28% and 32%; Conversion rate of 46 ([5]; OD600nm 9.0): 33% (2×) and 29%; Conversion rate of 46 ([5]; OD600nm 11.0): 38% and 34% and 33%; Conversion rate of 46 ([5]; OD600nm 13.0): 38%; Conversion rate of 46 ([5]; OD600nm 15.0): 43% and 35% (2×); conversion rate ([5]; concentration of 46 57.5 mg/L): 100%; conversion rate ([5]; concentration of 46 115 mg/L): 100%; conversion rate ([5]; concentration of 46 172.5 mg/L): 100%; conversion rate ([5]; concentration of 46 230 mg/L): 100%; conversion rate ([5]; concentration of 46 287.5 mg/L): 89% and 92% and 93%; conversion rate ([5]; concentration of 46 345 mg/L): 27.5% and 20% and 29.8%; conversion rate ([5]; concentration of 46 460 mg/L): 13.6% and 13.9% and 14%; conversion rate ([5]; concentration of 46 575 mg/L): 8.8% and 8.5% and 8%
Oc1cc(O)c(Cc2ccc(Cl)cc2)c(O)c1 [Compound 49]	0.8% and 0.9%	100%	0.2%	–
